Reference: patent US20090171592A1, “Homology Models of Mammalian Zinc Transporters and Methods of Using Same” (Brookhaven Science Associates, LLC, priority 2007, published 2009)
Read-outs that look alike come from different tables or passages of the source.

How the values were obtained:
YiiP [1] = molecular target: T1, YiiP (Escherichia coli, UniProt P69380); conditions: cited from earlier work
YiiP [2] = molecular target: T1, YiiP; conditions: cited from earlier work; remark: listed apart in the source
YiiP [3] = molecular target: T1, YiiP; conditions: Kd1 145 μM vs Kd2 0.24 μM
Text: Anomalous difference Fourier maps of native crystals were computed using experimental phases and diffraction data collected at the zinc edge.

T1 sequence (P69380 whole entry): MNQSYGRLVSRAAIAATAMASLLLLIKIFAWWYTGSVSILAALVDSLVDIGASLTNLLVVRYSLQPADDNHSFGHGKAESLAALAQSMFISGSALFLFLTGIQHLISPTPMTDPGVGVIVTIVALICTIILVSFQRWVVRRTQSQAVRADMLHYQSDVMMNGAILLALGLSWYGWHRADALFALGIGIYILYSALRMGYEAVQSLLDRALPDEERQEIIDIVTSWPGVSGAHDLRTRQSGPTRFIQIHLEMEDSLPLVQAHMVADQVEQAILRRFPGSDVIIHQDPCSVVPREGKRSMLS

## [Cd+2] [Cd^2+]
YiiP [1]
  binding affinities, metal binding mapped to D49 and D157 in the transmembrane domain: submicromolar range

## [Zn+2] [Zn^2+]
YiiP [2]; 30-ms timescale
  turnover rate of Zn2+ transport across the membrane: 34 s^−
YiiP [2]; read-out: Michaelis-Menten constant (Km) of Zn2+ transport by YiiP
  Km: 310 µM
YiiP [1]; EDTA pre-treated YiiP
  Zn2+ stoichiometry units per YiiP protomer: 2.6
YiiP [1]
  binding affinities, metal binding mapped to D49 and D157 in the transmembrane domain: submicromolar range
YiiP [1]; read-out: dissociation constant (Kd, Kd1), low affinity component / site-Z2, low-affinity binding component, intracellular-facing site-Z2
  Kd: 145 µM
YiiP [1]; read-out: dissociation constant (Kd, Kd2), high affinity sites / site-Z1, two high affinity Zn2+-binding sites, overall Kd, attributed to site-Z1
  Kd: 0.24 µM
YiiP [3]
  affinity difference between site-Z1 and Z2: 604 fold
